Results published in patent publication US20220249819A1, “MICRONEEDLES, AND METHODS FOR THE MANUFACTURE THEREOF” (UNIVERSITY COLLEGE CORK - NATIONAL UNIVERSITY OF IRELAND, …, priority 2019, published 2022).

How the values were obtained:
Format in all cases: physicochemical
[1] = Ability to form a glassy, amorphous form following heat-melting and cooling (XRD)
Experimental: As used herein, the term “meltable drug” or “meltable active pharmaceutical ingredient” refers to an active pharmaceutical ingredient that can be heat-melted to a molten form and has the following properties: • solid at 25° C.; • ability to form a glassy, amorphous form following heat-melting and cooling; and • the amorphous form having a glass transition temperature typically greater than 25° C. Examples of meltable drugs include; antifungals (for example, Itraconazole, Clotrimazole, Ketoconazole, Fluconazole, or derivatives or variants thereof), corticosteroids (for example, Estradiol, betamethasone valerate or derivatives or variants thereof), Anti-inflammatory drugs (for example, Celecoxib, Diclofenac, Sulindac, Indomethacin), Antimicrobials and Antibiotics (for example, Cefuroxime […], Chloramphenicol or derivatives or variants thereof), Cardiovascular and Antihypertensives (Carvedilol, Nifedipine or derivatives or variants thereof), Autonomic nervous system and Psychiatrics medications (Droperidol or derivatives or variants thereof), Antilipidemic and Cholesterol medications (Probucol, Simvastatin or derivatives or variants thereof), Gastrointestinal medications (Famotidine, Omeprazole or derivatives or variants thereof), Respiratory medications, Endocrine medications, Immunomodulators, Oncology drugs, Renal medications, Neurologic medications and anti-migraine (Zolmitriptan or derivatives or variants thereof). Typically, the meltable drug forms a stable amorphous form following melting and cooling; in this context, the formation of amorphous structure is confirmed by the XRD technique. X-ray powder Diffraction (XRD) is an analytical technique primarily used for phase identification of a crystalline material, in which the crystalline structure causes a beam of incident X-rays to diffract into many specific directions. It works best for materials that are crystalline or partially crystalline (i.e., that have periodic structural order) but is also used to study non-crystalline materials FIG. 3.

[2] = Glass transition temperature (Tg) of meltable drug in amorphous form by Differential Scanning calorimetry (DSC)
Excerpt: (§1) The meltable active pharmaceutical ingredient forms a stable amorphous form following melting and cooling; in this context, the term “stable” as applied to the amorphous form means that the thermodynamic tendency of the active pharmaceutical ingredient to crystallize over one year is resisted. […] In this context, minimal degradation means that at least 90% of the active pharmaceutical ingredient retains its therapeutic activity following melting and cooling. […] Also, analysis of ^1H and ^13C NMR confirmed the chemical structure of ITZ, with molecular formula C35H38Cl2N8O4. […] Which indicating the chemical stability of both ITZ melts (FIG. 5). Differential Scanning calorimetry (DSC) may be employed to determine the glass transition temperature (Tg) of a meltable drug in amorphous form DSC utilizes a heat flow technique and compares the amount of heat supplied to the test sample and a similarly heated “reference” to determine transition points. Tg is typically calculated by using a half-height technique in the transition region FIG. 6.

[3] = Chemical stability before and after melting for microneedle fabrication (LC-MS, 1H and 13C NMR)
Excerpt: as §1

Compound | GLASSY AND AMORPHOPUS FORM [1] | GLASS TRANSITION TEMP (TG ° C.) [2] [°C] | chemical stability of melts (1H and 13C NMR difference versus unmelted ITZ) [3] | stability before and after melting (LC-MS fragmentation pattern) ([3]; LC-MS, ITZ vs ITZ melt)
CCCCC(=O)O[C@]1(C(=O)CO)[C@@H](C)C[C@H]2[C@@H]3CCC4=CC(=O)C=C[C@]4(C)[C@@]3(F)[C@@H](O)C[C@@]21C [Betamethazone valerate] | YES | 54 |  | 
Clc1ccccc1C(c1ccccc1)(c1ccccc1)n1ccnc1 [Clotrimazole] | YES | 32 |  | 
O=C(O)Cc1ccccc1Nc1c(Cl)cccc1Cl [Diclofenac] | YES | 53 |  | 
OC(Cn1cncn1)(Cn1cncn1)c1ccc(F)cc1F [Fluconazole] | YES | 32 |  | 
CCC(C)n1ncn(-c2ccc(N3CCN(c4ccc(OCC5COC(Cn6cncn6)(c6ccc(Cl)cc6Cl)O5)cc4)CC3)cc2)c1=O (centres unmarked) [ITZ melt1] |  |  | No difference | 
CCC(C)n1ncn(-c2ccc(N3CCN(c4ccc(OCC5COC(Cn6cncn6)(c6ccc(Cl)cc6Cl)O5)cc4)CC3)cc2)c1=O (centres unmarked) [ITZ melt2] |  |  | No difference | 
COc1ccc2c(c1)c(CC(=O)O)c(C)n2C(=O)c1ccc(Cl)cc1 [Indomethacin] | YES | 45 |  | 
CCC(C)n1ncn(-c2ccc(N3CCN(c4ccc(OCC5COC(Cn6cncn6)(c6ccc(Cl)cc6Cl)O5)cc4)CC3)cc2)c1=O (centres unmarked) [Itraconazole] |  |  |  | high stability
CC(=O)N1CCN(c2ccc(OCC3COC(Cn4ccnc4)(c4ccc(Cl)cc4Cl)O3)cc2)CC1 (centres unmarked) [Ketoconazole] | YES | 46 |  | 
CC1=C(CC(=O)O)c2cc(F)ccc2/C1=C\c1ccc([S+](C)[O-])cc1 (centres unmarked) [Sulindac] | YES | 75 |  | 
